Measured values: US20160029628A1, “COMPOUNDS, COMPOSITIONS, AND METHODS FOR REPELLING AN INSECT FROM AN AREA,ARTICLE, AND/OR STRUCTURE” (BAYER CROPSCIENCE LP, priority 2013, published 2016)

How the values were obtained:
honeybees = experiment: Honeybee repellency at feeding stations, repellent in 50% sucrose solution; format: in vivo
Protocol: FIG. 1 describes the feeding station arrangement (A and B) for the honeybee repulsion experiments described herein. As set forth in FIG. 1, panel (A) sets forth the bee cage positions on the left portion of panel (A) with the randomized feeding station positions on the right portion of panel (A). Panel (B) sets forth an alignment of the randomized feeding station positions with a distance of two meters between feeding stations. A total of eight feeding stations were evaluated at a ten meter distance in front of the respective bee hives. The feeding stations were placed two meters apart from one another.
Honeybees were trained to deep feeders (eight positions), each containing a 50% sucrose solution for one day. After the honeybees were trained to each feeder, the 50% sucrose feeder at randomized positions 1-8 was replaced with a shallow feeder containing a combination of repelling compounds and a 50% sucrose solution according to Table 3. In accordance with FIGS. 5 and 6, 2% by weight of Camphor oil (T4), Ajowan oil (T5), Camphor powder (T6), Rosemary oil (T7), and 2-Decanone (T8) in combination with a 50% sucrose treatment were added to feeders on day two.
Table 3 describes active agents evaluated for bee repulsion and their randomized feeding station positions. As described in Table 3, T1 (control), T2 (control), T3 (control), T4 (Camphor oil), T5 (Ajowan oil), T6 (Camphor powder), T7 (Rosemary oil), and T8 (2-Decanone).
FIG. 5 evaluates the number of bees visiting a respective feed station over a time interval. FIG. 6 sets forth the mean number of honeybees visiting feeding station over a period of four hours.

[1] = Stability test of Poncho 600 with α-terpineol, clothianidin content by HPLC; format: physicochemical; details: combined with alpha-terpineol; up to 54° C. for eight days
Protocol: Table 5 describes a stability test with a combination of α-terpineol and Poncho 600 evaluated at room temperature, 40° C., and 54° C. at zero time, 2 days, and 8 days as confirmed by HPLC.

[2] = Stability test of Poncho 600 with Eugenol, clothianidin content by HPLC; format: physicochemical; details: combined with Eugenol; up to 54° C. for seven days
Protocol: Table 4 describes a stability test with a combination of Eugenol and Poncho evaluated at room temperature, 40° C., and 54° C. at zero time, 3 days, and 7 days as confirmed by high performance liquid chromatography (HPLC).

Structure (SMILES)	repellency over the full 4 hour assessment period (honeybees; 2% by weight with 50% sucrose, 4 hours)	repellency at 24 hours (honeybees; 2% by weight with 50% sucrose)	repellency at 24 hours (honeybees; 2% by weight with 50% sucrose, listed as 2-Decanone)	repellent effect relative to comparators (honeybees; relative to camphor oil, ajowan oil, camphor powder, or rosemary oil, FIGS. 5-6)	chemical stability of clothianidin content [1]	chemical stability of clothianidin content [2]
CCCCCCCCC(C)=O [Compound 2-decanone, 2-decanone]	highly repellent	still repellent	exhibited repellency	larger repellent effect	–	–
CN/C(=N\[N+](=O)[O-])NCc1cnc(Cl)s1 [clothianidin]	–	–	–	–	exhibited chemical stability	exhibited chemical stability
